For 15 compounds, IC50 results are on record in patent US6677368B2, “4-aryl substituted indolinones” (Sugen, Inc., priority 2000, dated 2004).

Some results are limits rather than exact numbers.

For one assay, the target named is FGFR1 (Homo sapiens, UniProt P11362). Put plainly: FGFR1 bioassay (ELISA, in vitro kinase activity). It is filed as biochemical. To be noted: purified GST-FGFR1, poly(Glu-Tyr) substrate. The procedure: This assay is used to measure the in vitro kinase activity of FGF1-R in an ELISA assay.
FGFR1, sequence (P11362 22-822, species assumed): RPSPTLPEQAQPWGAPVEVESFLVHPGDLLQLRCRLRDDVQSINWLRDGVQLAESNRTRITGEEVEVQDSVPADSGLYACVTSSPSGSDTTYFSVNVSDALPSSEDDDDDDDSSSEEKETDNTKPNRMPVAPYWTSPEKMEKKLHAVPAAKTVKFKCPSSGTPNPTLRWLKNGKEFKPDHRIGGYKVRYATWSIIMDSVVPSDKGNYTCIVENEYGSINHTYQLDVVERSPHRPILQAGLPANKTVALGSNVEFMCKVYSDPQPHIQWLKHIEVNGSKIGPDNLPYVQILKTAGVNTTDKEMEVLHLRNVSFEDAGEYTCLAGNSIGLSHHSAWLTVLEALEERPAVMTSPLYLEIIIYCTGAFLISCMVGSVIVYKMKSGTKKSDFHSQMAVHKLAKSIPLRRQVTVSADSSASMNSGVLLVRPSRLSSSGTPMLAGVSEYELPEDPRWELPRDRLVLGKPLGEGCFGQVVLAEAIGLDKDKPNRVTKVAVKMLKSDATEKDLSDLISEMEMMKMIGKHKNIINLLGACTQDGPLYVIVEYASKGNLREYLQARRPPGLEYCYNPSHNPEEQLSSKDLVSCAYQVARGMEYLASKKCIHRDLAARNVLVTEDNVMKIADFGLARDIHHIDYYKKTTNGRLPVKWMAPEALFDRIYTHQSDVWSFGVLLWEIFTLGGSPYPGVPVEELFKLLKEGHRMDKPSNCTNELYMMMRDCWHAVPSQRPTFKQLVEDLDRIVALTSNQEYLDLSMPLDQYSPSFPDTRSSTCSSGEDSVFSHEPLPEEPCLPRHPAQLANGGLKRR
1. Costar 96-well ELISA plates (Corning Catalog #3369).
2. Poly(Glu-Tyr) (Sigma Catalog #P0275).
4. 50 mM Hepes Buffer Solution.
5. Blocking Buffer (5% BSA/PBS).
6. Purified GST-FGFR1 (SUGEN, Inc.)
7. Kinase Dilution Buffer. Mix 500 μl 1M Hepes (GIBCO), 20 μl 5% BSA/PBS, 10 μl 100 mM sodium orthovanadate and 50 μl 5M NaCl.
9. ATP/MnCl2 phosphorylation mix: mix 20 μL ATP, 400 μL 1M MnCl2 and 9.56 ml dH2O.
10. NUNC 96-well V bottom polypropylene plates (Applied Scientific Catalog #AS-72092).
12. 0.05% TBST Add 500 μL TWEEN to 1 liter TBS.
13. Rabbit polyclonal anti-phosphotyrosine serum (SUGEN, Inc.).
14. Goat anti-rabbit IgG peroxidase conjugate (Biosource, Catalog #ALI0404).
1. Coat Costar 96 well ELISA plates with 1 μg per well Poly(Glu-Tyr) in 100 μl PBS. Store overnight at 4° C.
2. Wash coated plates once with PBS.
3. Add 150 μL of 5%BSA/PBS Blocking Buffer to each well. Incubate, with shaking, for 1 hr at room temperature.
4. Wash plate 2× with PBS, then once with 50 mM Hepes. Pat plates on a paper towel to remove excess liquid and bubbles.
5. Add 25 μL of 0.4 mM test compound in 4% DMSO or 4% DMSO alone (controls) to plate.
6. Dilute purified GST-FGFR1 in Kinase Dilution Buffer (5 ng kinase/50 μl KDB/well).
7. Add 50 μL of diluted kinase to each well.
8. Start kinase reaction by adding 25 μl/well of freshly prepared ATP/Mn++ (0.4 ml 1M MnCl2, 40 μL 10 mM ATP, 9.56 ml dH2O), freshly prepared).
9. Stop reaction with 25 μL of 0.5M EDTA.
10. Wash plate 4× with fresh TBST.
11. Make up Antibody Dilution Buffer: For 50 ml, mix 5 ml of 5% BSA, 250 μl of 5% milk and 50 μl of 100 mM sodium vanadate, bring to final volume with 0.05% TBST.
12. Add 100 μl per well of anti-phosphotyrosine (1:10000 dilution in ADB). Incubate, with shaking for 1 hr. at room temperature.
14. Add 100 μl per well of Biosource Goat anti-rabbit IgG peroxidase conjugate (1:6000 dilution in ADB). Incubate, with shaking for 1 hr. at room temperature.
15. Wash as in step 10 and then with PBS to remove bubbles and excess TWEEN.
16. Add 100 μl of ABTS/H2O2 solution to each well.
17. Incubate, with shaking, for 10 to 20 minutes. Remove any bubbles.
18. Read assay on Dynatech MR7000 ELISA reader: test filter at 410 nM, reference filter at 630 nM.

A further assay deals with T1, PDGFR (UniProt P09619).
T1 construct: PDGFR-β expressing NIH 3T3 cell lysate (SUGEN, Inc.)
Put plainly: PDGFR bioassay (ELISA, in vitro kinase activity). The conditions noted are these: PDGFR-β expressing NIH 3T3 cell lysate, 20 μM ATP. Type of assay: biochemical. As to the method:
This assay is used to the in vitro kinase activity of PDGFR in an ELISA assay.
1. Corning 96-well ELISA plates
2. 28D4C10 monoclonal anti-PDGFR antibody (SUGEN, Inc.).
5. Blocking Buffer (same as for EGFR bioassay).
6. PDGFR-β expressing NIH 3T3 cell lysate (SUGEN, Inc.).
11. Kinase buffer phosphorylation mix: for 10 ml, mix 250 μl 1M TRIS, 200 μl 5M NaCl, 100 μl 1M MnCl2 and 501l 100 mM Triton X-100 in enough dH2O to make 10 ml.
12. NUNC 96-well V bottom polypropylene plates.
14. Rabbit polyclonal anti-phosphotyrosine serum (SUGEN, Inc.).
15. Goat anti-rabbit IgG peroxidase conjugate (Biosource Cat. No. ALI0404).
17. Hydrogen peroxide, 30% solution.
1. Coat Corning 96 well ELISA plates with […] 28D4C 10 in 100 μl PBS per well, hold overnight at 4° C.
2. Remove unbound 28D4C10 from wells by inverting plate to remove liquid. Wash 1× with dH2O. Pat the plate on a paper towel to remove excess liquid.
3. Add 150 μl of Blocking Buffer to each well. Incubate for 30 min. at room temperature with shaking.
4. Wash plate 3× with deionized water, then once with TBST. Pat plate on a paper towel to remove excess liquid and bubbles.
5. Dilute lysate in HNTG (10 μg lysate/100 μl HNTG).
6. Add 100 μl of diluted lysate to each well. Shake at room temperature for 60 min.
7. Wash plates as described in Step 4.
8. Add 80 μl working kinase buffer mix to ELISA plate containing captured PDGFR.
9. Dilute test compound 1:10 in TBS in 96-well polypropylene plates.
10. Add 10 μl diluted test compound to -ELISA plate. To control wells, add 10 μl TBS+10% DMSO. Incubate with shaking for 30 minutes at room temperature.
11. Add 10 μl ATP directly to all wells except negative control well (final well volume should be approximately 100 μl with 20 μM ATP in each well.) Incubate 30 minutes with shaking.
12. Stop reaction by adding 10 μl of EDTA solution to each well.
13. Wash 4× with deionized water, twice with TBST.
14. Add 100 μl anti-phosphotyrosine (1:3000 dilution in TBST) per well.
Incubate with shaking for 30-45 min. at room temperature.
16. Add 100 μl Biosource Goat anti-rabbit IgG peroxidase conjugate (1:2000 dilution in TBST) to each well. Incubate with shaking for 30 min. at room temperature.
18. Add 100 μl of ABTS/H2O2 solution to each well.
19. Incubate 10 to 30 minutes with shaking. Remove any bubbles.
20. If necessary stop reaction with the addition of 100 μl 0.2 M HCl per well.
21. Read assay on Dynatech MR7000 ELISA reader with test filter at 410 nM and reference filter at 630 nM.

For `Cc1cc(C(=O)N2C[C@@H](C)N[C@@H](C)C2)c(/C=C2\C(=O)Nc3cccc(-c4cccc(Cl)c4)c32)[nH]1` [Example 35, 4-(3-Chloro-phenyl)-3-[3-((cis)-3,5-dimethyl-piperazine-1-carbonyl)-5-methyl-1H-pyrrol-2-ylmethylene]-1,3-dihydro-indol-2-one], the values for the IC50 against FGFR1 and against PDGFR were 220 nM and 1590 nM, respectively.
In the same order, the values of `Cc1[nH]c(/C=C2\C(=O)Nc3cccc(-c4ccccc4F)c32)c(C)c1C(=O)N1CCN(C)CC1` [Example 93, 3-[3,5-Dimethyl-4-(4-methyl-piperazine-1-carbonyl)-1H-pyrrol-2-ylmethylene]-4-(2-fluoro-phenyl)-1,3-dihydro-indol-2-one] are 83 nM and 3760 nM.
Taken in the same sequence, the figures for `COc1ccc(-c2cccc3c2/C(=C/c2[nH]c(C)c(C(=O)N4C[C@@H](C)N[C@@H](C)C4)c2C)C(=O)N3)cc1` [Example 40, 3-[4-((cis)-3,5-Dimethyl-piperazine-1-carbonyl)-3,5-dimethyl-1H-pyrrol-2-ylmethylene]-4-(4-methoxy-phenyl)-1,3-dihydro-indol-2-one] were 190 nM and 11100 nM.
Taken in the same sequence, the figures for `COc1ccc(-c2cccc3c2/C(=C/c2[nH]c(C)cc2C(=O)NCCN2CCCC2)C(=O)N3)cc1` [Example 41, 2-[4-(4-Methoxy-phenyl)-2-oxo-1,2-dihydro-indol-3-ylidenemethyl]-5-methyl-1H-pyrrole-3-carboxylic Acid (2-Pyrrolidin-1-yl-ethyl)-amide] were 560 nM and 3840 nM.
For `CCN(CC)CCNC(=O)c1c(C)[nH]c(/C=C2\C(=O)Nc3cccc(-c4ccccc4)c32)c1C` [Example 3, 2,4-Dimethyl-5-(2-oxo-4-phenyl-1,2-dihydro-indol-3-ylidenemethyl)-1H-pyrrole-3-carboxylic Acid (2-Diethylamino-ethyl)-amide], the half-maximal inhibitory concentration (IC50) – broadly, the point on the concentration scale where inhibition reaches its midpoint – was 31 nM against FGFR1 and 440 nM on PDGFR.
Taken in the same sequence, the figures for `Cc1[nH]c(/C=C2\C(=O)Nc3cccc(-c4cccc(F)c4)c32)c(C)c1C(=O)NCCn1ccnn1` [Example 15, 5-[4-(3-Fluoro-phenyl)-2-oxo-1,2-dihydro-indol-3-ylidenemethyl]-2,4-dimethyl-1H-pyrrole-3-carboxylic Acid (2-[1,2,3]Triazol-1-yl-ethyl)-amide] were 2070 nM and 10100 nM.
In the same order, the values of `Cc1[nH]c(/C=C2\C(=O)Nc3cccc(-c4ccc(Cl)cc4)c32)c(C)c1C(=O)N1CCN(C)CC1` [Example 20, 4-(4-Chloro-phenyl)-3-[3,5-dimethyl-4-(4-methyl-piperazine-1-carbonyl)-1H-pyrrol-2-ylmethylene]-1,3-dihydro-indol-2-one] are 1150 nM and 3390 nM.
Taken in the same sequence, the figures for `CCN(CC)CCNC(=O)c1c(C)[nH]c(/C=C2\C(=O)Nc3cccc(-c4cccc(OC)c4)c32)c1C` [Example 46, 5-[4-(3-Methoxy-phenyl)-2-oxo-1,2-dihydro-indol-3-ylidenemethyl]-2,4-dimethyl-1H-pyrrole-3-carboxylic Acid (2-Diethylamino-ethyl)-amide] were 22 nM and 4190 nM.
For `Cc1cc(C(=O)NCCn2ccnn2)c(/C=C2\C(=O)Nc3cccc(-c4ccccc4F)c32)[nH]1` [Example 99, 2-[4-(2-Fluoro-phenyl)-2-oxo-1,2-dihydro-indol-3-ylidenemethyl]-5-methyl-1H-pyrrole-3-carboxylic Acid (2-[1,2,3]Triazol-1-yl-ethyl)-amide], the IC50 at FGFR1 is 610 nM; against PDGFR, more than 20000 nM.
Taken in the same sequence, the figures for `Cc1cc(C(=O)N2CC[C@H](N(C)C)C2)c(/C=C2\C(=O)Nc3cccc(-c4ccc(F)cc4)c32)[nH]1` [Example 10, 3-[3-((S)-3-Dimethylamino-pyrrolidine-1-carbonyl)-5-methyl-1H-pyrrol-2-ylmethylene]-4-(4-fluoro-phenyl)-1,3-dihydro-indol-2-one] were 1540 nM and 11900 nM.
Taken in the same sequence, the figures for `CCN(CC)CCNC(=O)c1c(C)[nH]c(/C=C2\C(=O)Nc3cccc(-c4ccc(OC(F)(F)F)cc4)c32)c1C` [Example 140, 2,4-Dimethyl-5-[2-oxo-4-(4-trifluoromethoxy-phenyl)-1,2-dihydro-indol-3-ylidenemethyl]-1H-pyrrole-3-carboxylic Acid (2-Diethylamino-ethyl)-amide] were 520 nM and more than 20000 nM.
In the same order, the values of `Cc1cc(C(=O)NCCn2ccnn2)c(/C=C2\C(=O)Nc3cccc(-c4cccc(Cl)c4)c32)[nH]1` [Example 34, 2-[4-(3-Chloro-phenyl)-2-oxo-1,2-dihydro-indol-3-ylidenemethyl]-5-methyl-1H-pyrrole-3-carboxylic Acid (2-[1,2,3]Triazol-1-yl-ethyl)-amide] are 500 nM and more than 20000 nM.
In the case of `Cc1[nH]c(/C=C2\C(=O)Nc3cccc(-c4cccc(C(F)(F)F)c4)c32)c(C)c1C(=O)N1CCN(C)CC1` [Example 104, 3-[3,5-Dimethyl-4-(4-methyl-piperazine-1-carbonyl)-H-pyrrol-2-ylmethylene]-4-(3-trifluoromethyl-phenyl)-1,3-dihydro-indol-2-one], the IC50 against FGFR1 turned out to be 300 nM; against PDGFR, 19000 nM.
Taken in the same sequence, the figures for `Cc1cc(C(=O)N2CC[C@H](N(C)C)C2)c(/C=C2\C(=O)Nc3cccc(-c4cccc(Cl)c4)c32)[nH]1` [Example 32, 4-(3-Chloro-phenyl)-3-[3-((S)-3-dimethylamino-pyrrolidine-1-carbonyl)-5-methyl-1H-pyrrol-2-ylmethylene]-1,3-dihydro-indol-2-one] were 350 nM and 11600 nM.
In the same order, the values of `Cc1cc(C(=O)NCCN2CCCC2)c(/C=C2\C(=O)Nc3cccc(-c4ccc(F)c(Cl)c4)c32)[nH]1` [Example 119, 2-[4-(3-Chloro-4-fluoro-phenyl)-2-oxo-1,2-dihydro-indol-3-ylidenemethyl]-5-methyl-1H-pyrrole-3-carboxylic Acid (2-Pyrrolidin-1-yl-ethyl)-amide] are 240 nM and 9870 nM.
